The source of these data is patent publication US11505548B2, “Heterocyclic compounds and their use for treatment of helminthic infections and diseases” (Celgene Corporation, priority 2019, dated 2022).

This test has as its system Onchocerca gutturosa Adult Male Worms. In words: Onchocerciasis in vitro screening model, worm motility score. Type of test: cell-based. Particulars: read-out: O. gutturosa activity level (IC50 or MED).
Setting [1] is: Onchocerca gutturosa, Table 1 O. gutturosa, levels A/B/C, motility or MTT readout not specified.
[2] abbreviates: in vitro, Onchocerca gutturosa adult male worms, class A/B/C.

SMILES strings stand for the structures. Read-outs that look alike come from different tables or passages of the source.

A word on the IC50: it is the point on the concentration scale where inhibition reaches its midpoint. `COc1ccc(-c2nsc(Nc3ccc(OC4CCOCC4)cn3)n2)nc1` [Compound 43, 3-(5-methoxy-pyridin-2-yl)-N-(5-(tetrahydro-2H-pyran-4-yloxy)pyridin-2-yl)-1,2,4-thiadiazol-5-amine]: the IC50 under setting [1] was less than 200 nM.
On to `Cc1cccnc1Nc1nc(-c2ccc(OC(C)C)cn2)ns1` [Compound 19, 3-(5-isopropoxy-pyridin-2-yl)-N-(3-methyl-pyridin-2-yl)-1,2,4-thiadiazol-5-amine], for which the IC50 under setting [1] is less than 200 nM.
`CC(C)c1cnc(Nc2nc(-c3ncccc3OC3CC3)ns2)cc1C(F)(F)F` [Compound 97, 3-(3-cycloprop-oxypyridin-2-yl)-N-(5-isopropyl-4-(trifluoromethyl)pyridin-2-yl)-1,2,4-thiadiazol-5-amine]: under setting [1], the IC50 was less than 200 nM.
Same read-out and setting: the figure for `Cc1cccnc1Nc1nnc(-c2cc(C(C)C)ccn2)o1` [Compound 104, 5-(4-isopropyl-pyridin-2-yl)-N-(3-methyl-pyridin-2-yl)-1,3,4-oxadiazol-2-amine] is less than 200 nM; for `CC(=O)Nc1ccc(-c2nsc(Nc3ncccc3C)n2)nc1` [Compound 29, N-(6-(5-(3-methylpyridin-2-ylamino)-1,2,4-thiadiazol-3-yl)pyridin-3-yl) acetamide] it is 200 to 500 nM; for `CN(C)c1cccnc1Nc1nc(-c2ccc(OCC3CC3)cn2)ns1` [Compound 118, N2-(3-(5-(cyclopropyl-methoxy)pyridin-2-yl)-1,2,4-thiadiazol-5-yl)-N3,N3-dimethyl-pyridine-2,3-diamine] it is less than 200 nM.
As to `COc1ccc(Nc2nc(-c3cc(OC4CCCCC4)ccn3)ns2)nc1` [Compound 183, 3-(4-(cyclo-hexyloxy)pyridin-2-yl)-N-(5-methoxypyridin-2-yl)-1,2,4-thiadiazol-5-amine], the IC50 under setting [1] fell in the range of 200 to 500 nM.
For `CC(=O)N(C)c1cc(C(F)(F)F)cnc1Nc1nc(-c2cc3c(cn2)N(C(C)C)CC3)ns1` [Compound 273, N-(2-(3-(1-isopropyl-2,3-dihydro-1H-pyrrolo[2,3-c]pyridin-5-yl)-1,2,4-thiadiazol-5-ylamino)-5-(trifluoromethyl)pyridin-3-yl)-N-methylacetamide], the IC50 under setting [2] fell in the range of 200 to 500 nM.
On to `Cc1cccnc1Nc1nc(-c2cc(C#N)ccn2)ns1` [Compound 40, 2-(5-(3-methyl-pyridin-2-ylamino)-1,2,4-thiadiazol-3-yl)isonicotino-nitrile], for which the IC50 under setting [1] fell in the range of 500 to 5000 nM.
For `CC(C)Oc1ccc(-c2nsc(Nc3ncccc3C(=O)N(C)C3CC3)n2)nc1` [Compound 262, N-cyclo-propyl-2-(3-(5-isopropoxy-pyridin-2-yl)-1,2,4-thiadiazol-5-ylamino)-N-methyl-nicotinamide], the IC50 under setting [2] is 500 to 5000 nM.
Take `CC(=O)N(C)c1cc(C(F)(F)F)cnc1Nc1nc(-c2cc3c(cn2)CN(C(C)C)C3)ns1` [Compound 311, N-(2-(3-(2-isopropyl-2,3-dihydro-1H-pyrrolo[3,4-c]pyridin-6-yl)-1,2,4-thiadiazol-5-ylamino)-5-(trifluoromethyl)pyridin-3-yl)-N-methylacetamide]: the IC50 under setting [2] is less than 200 nM.
On to `c1ccc(-c2nsc(Nc3ccc(N4CCCCC4)cn3)n2)nc1` [Cmpd 6, N-(5-(piperidin-1-yl)pyridin-2-yl)-3-(pyridin-2-yl)-1,2,4-thiadiazol-5-amine], for which, under setting [1], the IC50 is less than 200 nM.
On to `CC(C)Oc1cnc(-c2nsc(Nc3ncccc3C(=O)N(C)C)n2)cc1C(F)(F)F` [Compound 225, 2-(3-(5-isopropoxy-4-(trifluoromethyl)pyridin-2-yl)-1,2,4-thiadiazol-5-ylamino)-N,N-dimethyl-nicotinamide], for which the IC50 under setting [2] lay in the range of 500 to 5000 nM.
As for `CN1CC(S(=O)(=O)c2ccc(-c3nsc(Nc4ncccc4N(C)C)n3)nc2)C1` [Compound 141, N3,N3-dimethyl-N2-(3-(5-(1-methylazetidin-3-ylsulfonyl)pyridin-2-yl)-1,2,4-thiadiazol-5-yl)pyridine-2,3-diamine], the IC50 under setting [1] was in the range of 500 to 5000 nM.
With `CC(=O)N(C)c1cc(C(F)(F)F)cnc1Nc1nc(-c2cc3c(cn2)N(C)C(=O)C3(C)C)ns1` [Compound 287, N-methyl-N-(5-(trifluoromethyl)-2-(3-(1,3,3-trimethyl-2-oxo-2,3-dihydro-1H-pyrrolo[2,3-c]pyridin-5-yl)-1,2,4-thiadiazol-5-ylamino)pyridin-3-yl)acetamide], the IC50 under setting [2] fell in the range of 500 to 5000 nM.
Consider `CC(=O)N(C)c1cccnc1Nc1nc(-c2cc(C)ccn2)ns1` [Compound 208, N-methyl-N-(2-(3-(4-methylpyridin-2-yl)-1,2,4-thiadiazol-5-ylamino)pyridin-3-yl)acetamide], for which the IC50 under setting [2] fell in the range of 500 to 5000 nM.
As to `CC(C)Oc1cccnc1-c1nsc(Nc2cc(N3CCCC3)ccn2)n1` [Compound 94, 3-(3-isopropoxy-pyridin-2-yl)-N-(4-(pyrrolidin-1-yl)pyridin-2-yl)-1,2,4-thiadiazol-5-amine], the IC50 under setting [1] is less than 200 nM.
Consider `CC(C)Oc1cnc(-c2nsc(Nc3ncc(C(C)C)cc3C(F)(F)F)n2)cc1C(N)=O` [Compound 221, 5-isopropoxy-2-(5-(5-isopropyl-3-(trifluoromethyl)pyridin-2-ylamino)-1,2,4-thiadiazol-3-yl)iso-nicotinamide], for which the IC50 under setting [2] lay in the range of 200 to 500 nM.
Regarding `CN(C)C(=O)c1cc(C(F)(F)F)cnc1Nc1nc(-c2cc3c(cn2)N(C)C(=O)C3(C)C)ns1` [Compound 292, N,N-dimethyl-5-(trifluoromethyl)-2-(3-(1,3,3-trimethyl-2-oxo-2,3-dihydro-1H-pyrrolo[2,3-c]pyridin-5-yl)-1,2,4-thiadiazol-5-ylamino) nicotinamide], the IC50 under setting [2] was 500 to 5000 nM.
With `O=C(NCC1CC1)c1ccc(Nc2nc(-c3ccc(OC4CC4)cn3)ns2)nc1` [Compound 106, 6-(3-(5-cyclo-propoxypyridin-2-yl)-1,2,4-thiadiazol-5-ylamino)-N-(cyclopropyl-methyl) nicotinamide], the IC50 under setting [1] lay in the range of 500 to 5000 nM.
Turning to `Fc1cccnc1-c1noc(Nc2cc(C(F)(F)F)ccn2)n1` [Compound 27, 3-(3-fluoropyridin-2-yl)-N-(4-(trifluoro-methyl)pyridin-2-yl)-1,2,4-oxadiazol-5-amine], the IC50 under setting [1] was less than 200 nM.
Take `CC(=O)N(C)c1cccnc1Nc1nc(-c2cc3c(cn2)N(C(C)C)CC3)ns1` [Compound 206, N-(2-(3-(1-isopropyl-2,3-dihydro-1H-pyrrolo[2,3-c]pyridin-5-yl)-1,2,4-thiadiazol-5-ylamino)pyridin-3-yl)-N-methylacetamide]: the IC50 under setting [2] lay in the range of 500 to 5000 nM.
Consider `Cc1ccnc(Nc2nsc(-c3ncccc3C)n2)c1` [Compound 305, 5-(3-methyl-pyridin-2-yl)-N-(4-methylpyridin-2-yl)-1,2,4-thiadiazol-3-amine], for which the IC50 under setting [2] was less than 200 nM.
In the case of `FC(F)(F)c1ccnc(Nc2nc(-c3ccccn3)no2)c1` [Compound 28, 3-(pyridin-2-yl)-N-(4-(trifluoro-methyl)pyridin-2-yl)-1,2,4-o xadiazol-5-amine], under setting [1], the IC50 is less than 200 nM.
Regarding `Cc1cccnc1Nc1nc(-c2ccc(C(=O)NCC(F)(F)F)cn2)ns1` [Compound 60, 6-(5-(3-methyl-pyridin-2-ylamino)-1,2,4-thiadiazol-3-yl)-N-(2,2,2-trifluoroethyl) nicotinamide], the IC50 under setting [1] lay in the range of 500 to 5000 nM.
Same read-out and setting: the figure for `CC(=O)N(C)c1cccnc1Nc1nc(-c2cc(C(F)(F)F)c(OC(C)C)cn2)ns1` [Compound 187, N-(2-(3-(5-isopropoxy-4-(trifluoro-methyl)pyridin-2-yl)-1,2,4-thiadiazol-5-ylamino)pyridin-3-yl)-N-methylacetamide] is 500 to 5000 nM; for `Cc1cccnc1Nc1nc(-c2ccc(S(C)(=O)=O)cn2)ns1` [Compound 79, N-(3-methyl-pyridin-2-yl)-3-(5-(methyl-sulfonyl)pyridin-2-yl)-1,2,4-thiadiazol-5-amine] it is 500 to 5000 nM; for `COc1ccnc(-c2nsc(Nc3ccc(OC(C)C)cn3)n2)c1` [Compound 184, N-(5-isoprop-oxypyridin-2-yl)-3-(4-methoxy-pyridin-2-yl)-1,2,4-thiadiazol-5-amine] it is less than 200 nM.
Turning to `CC(=O)N(C)c1cccnc1Nc1nc(-c2cc(C(F)F)c(OC(C)C)cn2)ns1` [Compound 261, N-(2-(3-(4-(difluoromethyl)-5-isopropoxy-pyridin-2-yl)-1,2,4-thiadiazol-5-ylamino)pyridin-3-yl)-N-methylacetamide], under setting [2], the IC50 lay within 500 to 5000 nM.
Turning to `CC(C)Oc1ccc(-c2nsc(Nc3ncc(C(=O)NC4CC(F)(F)C4)cc3C(C)C)n2)nc1` [Compound 195, N-(3,3-difluoro-cyclobutyl)-6-(3-(5-isoprop-oxypyridin-2-yl)-1,2,4-thiadiazol-5-ylamino)-5-isopropyl-nicotinamide], the IC50 under setting [1] was less than 200 nM.
As to `Cc1cccnc1Nc1nc(-c2ccc3c(n2)CN(CC2CC2)C3)ns1` [Compound 114, 3-(6-(cyclo-propylmethyl)-6,7-dihydro-5H-pyrrolo[3,4-b]pyridin-2-yl)-N-(3-methylpyridin-2-yl)-1,2,4-thiadiazol-5-amine], the IC50 under setting [1] lay within 500 to 5000 nM.
Same read-out and setting: under `COc1cnc(-c2nnc(Nc3ncccc3N(C)C)o2)cn1` [Compound 158, N2-(5-(5-methoxy-pyrazin-2-yl)-1,3,4-oxadiazol-2-yl)-N3,N3-dimethyl-pyridine-2,3-diamine] stands 500 to 5000 nM.
Turning to `c1ccc(-c2ccnc(Nc3nnc(-c4ccccn4)o3)c2)cc1` [Compound 235, N-(4-phenyl-pyridin-2-yl)-5-(pyridin-2-yl)-1,3,4-oxadiazol-2-amine], under setting [2], the IC50 is 500 to 5000 nM.
On the same count and under the same terms, the figure for `Cc1cccnc1Nc1nnc(-c2ccc(OC3CCOCC3)cn2)[nH]1` [Compound 258, 3-methyl-N-(5-(5-(tetrahydro-2H-pyran-4-yloxy)pyridin-2-yl)-4H-1,2,4-triazol-3-yl) pyridin-2-amine] is less than 200 nM.
Take `Cc1cccnc1-c1nnc(Nc2ccccn2)[nH]1` [Compound 41, N-(5-(3-methyl-pyridin-2-yl)-4H-1,2,4-triazol-3-yl)pyridin-2-amine]: under setting [1], the IC50 is less than 200 nM.
With `CC(=O)N(C)c1cc(C(F)(F)F)cnc1Nc1nc(-c2cc3c(cn2)OC(C)(C)C3)ns1` [Compound 272, N-(2-(3-(2,2-dimethyl-2,3-dihydrofuro [2,3-c]pyridin-5-yl)-1,2,4-thiadiazol-5-ylamino)-5-(trifluoromethyl)pyridin-3-yl)-N-methylacetamide], under setting [2], the IC50 lay within 200 to 500 nM.
